Measured values published in ChEMBL document CHEMBL5365456, “Isolation and biological activity of natural chalcones based on antibacterial mechanism classification” (Bioorg Med Chem, 2023).
≈ marks a conversion by molar mass, not a printed value.

Experiments:
Format in all cases: functional
[1] = tested on: Mycobacterium tuberculosis variant bovis; assay: Antibacterial activity against Mycobacterium bovis BCG transfected with pVV16 vector assessed bacterial growth inhibition by Alamar Blue cell viability assay
[2] = tested on: Mycobacterium tuberculosis variant bovis; assay: Antibacterial activity against Mycobacterium bovis BCG transfected with pVV16 vector expressing Rv0636 assessed bacterial growth inhibition by Alamar Blue cell viability assay
[3] = tested on: Mycobacterium tuberculosis variant bovis; assay: Antibacterial activity against Mycobacterium bovis BCG assessed bacterial growth inhibition by Alamar Blue cell viability assay

Compound | MIC99 [1] | MIC99 [2] | MIC99 [3]
O=C(/C=C/c1ccc(O)c(O)c1)c1ccc(O)cc1O [BUTEIN] | 43 µg/mL (≈ 158 µM) | 59 µg/mL (≈ 217 µM) | 47 µg/mL (≈ 173 µM)
O=C(/C=C/c1ccc(O)cc1)c1ccc(O)cc1O [ISOLIQUIRITIGENIN] | 50 µg/mL (≈ 195 µM) | 64 µg/mL (≈ 250 µM) | 50 µg/mL (≈ 195 µM)
